Measurements published in patent US9492465B2, “Gold(I) complexes with t-butyl phosphine and dialkyl dithiocarbamate ligands” (KING FAHD UNIVERSITY OF PETROLEUM AND MINERALS, priority 2014, dated 2016).
pIC50: −log10 of the molar value.

Assays:
Type in all cases: cell-based
[1] = system: MCF7 (human breast cancer) cell line; test: in vitro cytotoxicity, MTT assay, MCF7 cell line; settings: 24 h exposure, read-out: IC50 Values against MCF7
Description: Metal precursor and two synthesized compound (1)and compound (2) were evaluated for their in-vitro cytotoxic activity against MCF7 (human breast cancer), HeLa (human cervical cancer) and A549 (human lung carcinoma) cell lines.
(§1) The cells were seeded at 4×10^3 cells/well in 100 μL DMEM (Dulbecco's Modified Eagle's Medium) containing 10%. FBS (Fetal Bovine Serum) in 96-wells tissue culture plate and incubated for 72 h at 37° C., 5% CO2 in air and 90% relative humidity in CO2 incubator. After incubation, 100 μL of complex (0),(1)and (2) (50, 25, 12.5, 6.25 and 3.12 μg/mL), prepared in DMEM, was added to cells and the cultures were incubated for 24 h. The medium of wells was discarded and 100 μL DMEM containing MTT (3-(4,5-Dimethylthiazol-2-Yl)-2,5-Diphenyltetrazolium Bromide) (5 mg/mL) was added to the wells and incubated in CO2 incubator at 37° C. in dark for 4 h. After incubation, a purple colored formazan (artificial chromogenic dye, product of the reduction of water insoluble tetrazolium salts e.g., MMT by dehydrogenases and reductases) in the cells is produced and appeared as dark crystals in the bottom of the wells. The medium of culture was discarded from each well carefully to avoid disruption of monolayer and 100 μL of Dimethylsufoxide (DMSO) was added in each well. The solution was thoroughly mixed in the wells to dissolve the formazan crystals which ultimately result into a purple solution. The absorbance of the 96-wells plate was taken at 570 nm with Labsystems Multiskan EX-Enzyme-linked immunosorbent assay (EX-ELISA) reader against a reagent blank.
The in vitro cytotoxicity tests were evaluated for the gold(I) precursor, labeled as (0) and two synthesized complexes labeled as (1) and (2)against three human cancer cell lines, MCF7, HeLa and A549 using MTT assay. The dose dependent cytotoxic effect was obtained by the stipulated increase in concentrations of complexes (0), (1) and (2) against the fixed number of human cancer cells. […] FIG. 3 is a graph of the in vitro cytotoxic effect of series of concentrations of compound (0) on MCF7 cell line. […]

[2] = system: A549 (human lung carcinoma) cell line; test: in vitro cytotoxicity, MTT assay, A549 cell line; settings: 24 h exposure, read-out: IC50 Values against A549
Description: as §1, with “After incubation, 100 μL of complex (0),(1)and (2) (50, 25, 12.5, 6.25 and 3.12 μg/mL), prepared in DMEM, was added to cells and the cultures were incubated for 24 h.” left out
(§2) The in vitro cytotoxicity tests were evaluated for the gold(I) precursor, labeled as (0) and two synthesized complexes labeled as (1) and (2)against three human cancer cell lines, MCF7, HeLa and A549 using MTT assay.

[3] = system: HeLa (human cervical cancer) cell line; test: in vitro cytotoxicity, MTT assay, HeLa cell line; settings: for cytotoxic effects on HeLa cell line compared with Auranofin: 50 μg/mL concentration; for pIC50: HeLa cell line, 24 h exposure, read-out: IC50 Values against HeLa; for pIC50 / percent viability of HeLa: MTT; for percent viability of HeLa: 24 h
Description: as §1, with “After incubation, 100 μL of complex (0),(1)and (2) (50, 25, 12.5, 6.25 and 3.12 μg/mL), prepared in DMEM, was added to cells and the cultures were incubated for 24 h.” left out
as §2

[4] = concentration 3.12 (title μM, head iM)
[5] = concentration 6.25 (title μM, head iM)
[6] = concentration 12.5 (title μM, head iM)
[7] = concentration 25 (title μM, head iM)
[8] = concentration 50 (title μM, head iM)

Row | Structure (SMILES) | pIC50 [1] | pIC50 [2] | cytotoxic effects on HeLa cell line compared with Auranofin [3] | pIC50 [3] | percent viability of HeLa [3, 4] | percent viability of HeLa [3, 5] | percent viability of HeLa [3, 6] | percent viability of HeLa [3, 7] | percent viability of HeLa [3, 8]
1 | CN(C)C(=S)[S][Au][PH](C(C)(C)C)(C(C)(C)C)C(C)(C)C [Complex (1), [Au{P(t-Bu)3}(S2CN(CH3)2)]] | 4.68 | 4.57 | better than Auranofin | 5.68 | 50.6 ± 1.5% | 34.4 ± 0.9% | 19.5 ± 1.4% | 15.3 ± 1.1% | 8.7 ± 1.2%
2 | CCN(CC)C(=S)[S][Au][PH](C(C)(C)C)(C(C)(C)C)C(C)(C)C [Complex (2), [Au{P(t-Bu)3}(S2CN(C2H5)2)]] | 4.79 | 4.71 | better than Auranofin | 5.49 | 53.9 ± 1.9% | 38.6 ± 1.2% | 27.9 ± 1.0% | 22.9 ± 1.2% | 9.41 ± 1.16%
3 | CC(C)(C)P(C(C)(C)C)C(C)(C)C.[Cl][Au] [Complex (0), [Au{P(t-Bu)3}(Cl)], reference compound] | 4.78 | 4.85 |  | 4.80 | 93.6 ± 2.4% | 89.5 ± 2.3% | 81.9 ± 1.9% | 27.3 ± 1.5% | 12.4 ± 1.1%
